The test system of one data set is rape Brassica napus. Nature of the data set: Petri dish culture, growth inhibition of root and stalk of rape. Type of data set: in vivo. Conditions: Brassica napus, 120 h, 5 days; for inhibition at 1 µg/mL: 1 mg/L; for inhibition at 10 µg/mL: 10 mg/L. On the procedure:
(§1) The synthesized compounds were tested for the herbicidal activity on model plants including a monocotyledon (barnyard grass) and a dicotyledon (rape) by the reported Petri dish culture method. The percent inhibitory ratios against the growth of root and stalk of barnyard grass and rape at different dosage concentrations were calculated, and the compounds with appreciable inhibitory potencies are selected and shown in Table 1 and Table 2. Several features of the inhibitory activities can be derived. First, all the compounds have stronger inhibition against the growth of the dicotyledon rape than against the monocotyledon barnyard grass, showing appreciable selectivity.
(§2) The herbicidal activity was examined for the growth inhibition effect of the dicotyledon rape Brassica napus and the monocotyledon barnyard grass Echinochloa crusgalli, using the standard Petri dish test and the pre-emergence treatment procedure. […] Nine mL of the solution was added in a Petri dish of 9 cm diameter and two pieces of filter paper were placed on the dish bottom. Twenty seeds each of rape and barnyard grass were placed on the filter paper. The covered Petri dish was transferred into an artificial climate incubator (MGC-400H, Shantou Keyi Co., Ltd., China), where the conditions were controlled at temperature 23 ± 1 °C, humidity 60 ± 5%, light intensity 10 Klux, and photoperiod 12 h/day. The incubation was continued for 5 days, then the lengths of 10 roots and 10 stems for each type of plant were measured and the mean values were calculated. The percent inhibitory ratios were calculated relative to control plants exposing to distilled water instead of the compound solution.

The subject of data set [1] is barnyard grass Echinochloa crusgalli. Put plainly: Petri dish culture, growth inhibition of root and stalk of barnyard grass. Type of data set: in vivo. The settings on record: Echinochloa crus-galli, 120 h, 5 days; for inhibition at 1 µg/mL: 1 mg/L; for inhibition at 10 µg/mL: 10 mg/L. The procedure:
as §1, §2

The mark [2] stands for this setting: root growth, read-out: Relative inhibition, root.
[3] abbreviates: stalk growth, read-out: Relative inhibition, stalk.

Each structure is given as a SMILES string. Read-outs that look alike come from different tables or passages of the source.

Regarding `Cn1c(COc2ccc(Cl)cc2)nc2ccc(Cl)cc2c1=O` [4l, 6-Chloro-2-((4-chlorophenoxy)methyl)-3-methyl-3H-quinazolin-4-one], the melting point lay within 179.9 to 181.2 °C. Also, in the data set with rape Brassica napus (setting [2]), the inhibition at 1 µg/mL came to 28.5% and the inhibition at 10 µg/mL turned out to be 42.2%. In the data set on rape Brassica napus (setting [3]), the inhibition at 1 µg/mL is 1.5% and the inhibition at 10 µg/mL came out at 10.8%. For the same molecule, in data set [1] (setting [2]), the inhibition at 1 µg/mL amounted to 24.7% and the inhibition at 10 µg/mL is 33.7%. In addition, in data set [1] (setting [3]), the inhibition at 1 µg/mL was 8.9% and the inhibition at 10 µg/mL is 11.9%.
With `Cc1ccc2nc(COc3ccc(Cl)cc3)n(C)c(=O)c2c1` [4n, 2-((4-Chlorophenoxy)methyl)-3,6-dimethyl-3H-quinazolin-4-one], the melting point was 196.4 to 197.6 °C. In addition, in the data set on rape Brassica napus (setting [2]), the inhibition at 1 µg/mL was found to be 39.4% and the inhibition at 10 µg/mL was determined as 45%. In the data set with rape Brassica napus (setting [3]), the inhibition at 1 µg/mL worked out at 7.8% and the inhibition at 10 µg/mL came to 16.6%. For the same molecule, in data set [1] (setting [2]), the inhibition at 1 µg/mL stood at 26.7% and the inhibition at 10 µg/mL stood at 43.5%. In data set [1] (setting [3]), the inhibition at 1 µg/mL was found to be 14.9% and the inhibition at 10 µg/mL stood at 14.9%.
`COc1cc2nc(COc3ccc(Cl)cc3Cl)n(C)c(=O)c2cc1OC` [4s, 2-((2,4-Dichlorophenoxy)methyl)-6,7-dimethoxy-3-methyl-3H-quinazolin-4-one] showed a melting point of 243.9 to 245.2 °C. Moreover, in the data set with rape Brassica napus (setting [2]), the inhibition at 1 µg/mL came to 7.1% and the inhibition at 10 µg/mL was 20.7%. Also, in the data set with rape Brassica napus (setting [3]), the inhibition at 1 µg/mL was 8.1% and the inhibition at 10 µg/mL amounted to 20.3%. In data set [1] (setting [2]), the inhibition at 1 µg/mL stood at 30% and the inhibition at 10 µg/mL was 52.2%. For the same molecule, in data set [1] (setting [3]), the inhibition at 1 µg/mL is -20.3% and the inhibition at 10 µg/mL is -54.5%.
`Cn1c(COc2ccc(Cl)cc2Cl)nc2ccccc2c1=O` [4p, 2-((2,4-Dichlorophenoxy)methyl)-3-methy-3H-quinazolin-4-one]: the melting point lay in the range of 172.1 to 173.4 °C. For the same molecule, in the data set with rape Brassica napus (setting [2]), the inhibition at 1 µg/mL stood at 4.5% and the inhibition at 10 µg/mL stood at 21.2%. Further, in the data set with rape Brassica napus (setting [3]), the inhibition at 1 µg/mL was 27.1% and the inhibition at 10 µg/mL worked out at 29.2%. For the same molecule, in data set [1] (setting [2]), the inhibition at 1 µg/mL amounted to 2.5% and the inhibition at 10 µg/mL is 29.4%. Also, in data set [1] (setting [3]), the inhibition at 1 µg/mL was -10.9% and the inhibition at 10 µg/mL is -47.3%.
`Cc1ccc2nc(COc3ccc(F)cc3)oc(=O)c2c1` [3v, 2-((4-Fluorophenoxy)methyl)-6-methyl-4H-3,1-benzoxazin-4-one]: the melting point lay in the range of 130.8 to 131.9 °C. Also, in the data set with rape Brassica napus (setting [2]), the inhibition at 1 µg/mL came to 87.7% and the inhibition at 10 µg/mL is 99.3%. Moreover, in the data set with rape Brassica napus (setting [3]), the inhibition at 1 µg/mL was 61% and the inhibition at 10 µg/mL was determined as 93.7%. Besides, in data set [1] (setting [2]), the inhibition at 1 µg/mL worked out at 69.9% and the inhibition at 10 µg/mL is 92.2%. In addition, in data set [1] (setting [3]), the inhibition at 1 µg/mL amounted to 24.1% and the inhibition at 10 µg/mL was found to be 31.7%.
Regarding `O=c1oc(COc2ccccc2)nc2ccc(Cl)cc12` [3c, 6-Chloro-2-(phenoxymethyl)-4H-3,1-benzoxazin-4-one], the melting point lay within 113.1 to 115.2 °C. In addition, in the data set with rape Brassica napus (setting [2]), the inhibition at 1 µg/mL was determined as 45.4% and the inhibition at 10 µg/mL was 83.9%. Also, in the data set with rape Brassica napus (setting [3]), the inhibition at 1 µg/mL was 26.7% and the inhibition at 10 µg/mL was 64.6%. In addition, in data set [1] (setting [2]), the inhibition at 1 µg/mL came out at 23.7% and the inhibition at 10 µg/mL stood at 62.6%. In data set [1] (setting [3]), the inhibition at 1 µg/mL worked out at 0.3% and the inhibition at 10 µg/mL worked out at 46.7%.
`Cc1ccc2nc(COc3ccc(Cl)cc3)n(N)c(=O)c2c1` [4d, 3-Amino-2-((4-chlorophenoxy)methyl)-6-methyl-3H-quinazolin-4-one] came in with a melting point of 177.3 to 178.6 °C. Also, in the data set with rape Brassica napus (setting [2]), the inhibition at 1 µg/mL is 26.4% and the inhibition at 10 µg/mL came to 31.3%. For the same molecule, in the data set with rape Brassica napus (setting [3]), the inhibition at 1 µg/mL is -14.7% and the inhibition at 10 µg/mL was -3.4%. In addition, in data set [1] (setting [2]), the inhibition at 1 µg/mL is 16.3% and the inhibition at 10 µg/mL was found to be 35.6%. Also, in data set [1] (setting [3]), the inhibition at 1 µg/mL stood at 11.9% and the inhibition at 10 µg/mL is 7.4%.
In the case of `COc1cc2nc(COc3ccccc3)oc(=O)c2cc1OC` [3f, 6,7-Dimethoxy-2-(phenoxymethyl)-4H-3,1-benzoxazin-4-one], the melting point was in the range of 132.1 to 134.3 °C. Also, in the data set on rape Brassica napus (setting [2]), the inhibition at 1 µg/mL turned out to be 94.9% and the inhibition at 10 µg/mL was 71.1%. For the same molecule, in the data set with rape Brassica napus (setting [3]), the inhibition at 1 µg/mL came to 32.9% and the inhibition at 10 µg/mL came out at 63.3%. In addition, in data set [1] (setting [2]), the inhibition at 1 µg/mL came out at 35.5% and the inhibition at 10 µg/mL amounted to 63%. Further, in data set [1] (setting [3]), the inhibition at 1 µg/mL came out at 32% and the inhibition at 10 µg/mL is 46.7%.
`O=c1oc(COc2ccccc2)nc2cccc(Cl)c12` [3b, 5-Chloro-2-(phenoxymethyl)-4H-3,1-benzoxazin-4-one] showed a melting point of 118.3 to 120.9 °C. In the data set on rape Brassica napus (setting [2]), the inhibition at 1 µg/mL stood at 59.6% and the inhibition at 10 µg/mL turned out to be 83.3%. Moreover, in the data set with rape Brassica napus (setting [3]), the inhibition at 1 µg/mL is 39.2% and the inhibition at 10 µg/mL is 51.9%. Also, in data set [1] (setting [2]), the inhibition at 1 µg/mL was 47.2% and the inhibition at 10 µg/mL was 56.3%. Further, in data set [1] (setting [3]), the inhibition at 1 µg/mL came to 0.5% and the inhibition at 10 µg/mL was determined as 24.1%.
`Nn1c(COc2ccc(Cl)cc2Cl)nc2cccc(Cl)c2c1=O` [4g, 3-Amino-5-chloro-2-((2,4-dichlorophenoxy)methyl)-3H-quinazolin-4-one] displayed a melting point of 201.5 to 202 °C. In the data set with rape Brassica napus (setting [2]), the inhibition at 1 µg/mL stood at 5.7% and the inhibition at 10 µg/mL amounted to 17.5%. For the same molecule, in the data set with rape Brassica napus (setting [3]), the inhibition at 1 µg/mL was found to be 10% and the inhibition at 10 µg/mL amounted to 44.9%. In addition, in data set [1] (setting [2]), the inhibition at 1 µg/mL stood at 11.8% and the inhibition at 10 µg/mL worked out at 25.8%. For the same molecule, in data set [1] (setting [3]), the inhibition at 1 µg/mL is -5.9% and the inhibition at 10 µg/mL is -1.8%.
For `COc1cc2nc(COc3ccc(Cl)cc3)n(C)c(=O)c2cc1OC` [4o, 2-((4-Chlorophenoxy)methyl)-6,7-dimethoxy-3-methyl-3H-quinazolin-4-one], the melting point was 201.8 to 202.7 °C. In the data set with rape Brassica napus (setting [2]), the inhibition at 1 µg/mL is 25.1% and the inhibition at 10 µg/mL stood at 34.8%. Besides, in the data set on rape Brassica napus (setting [3]), the inhibition at 1 µg/mL was 1.9% and the inhibition at 10 µg/mL is -6.8%. In data set [1] (setting [2]), the inhibition at 1 µg/mL worked out at 13.3% and the inhibition at 10 µg/mL was 17.3%. Further, in data set [1] (setting [3]), the inhibition at 1 µg/mL is 8.9% and the inhibition at 10 µg/mL was 5.9%.
In the case of `O=c1oc(COc2ccccc2)nc2cc(Cl)ccc12` [3d, 7-Chloro-2-(phenoxymethyl)-4H-3,1-benzoxazin-4-one], the melting point was in the range of 117.3 to 119.9 °C. In the data set on rape Brassica napus (setting [2]), the inhibition at 1 µg/mL is 75.5% and the inhibition at 10 µg/mL was 93.5%. Moreover, in the data set on rape Brassica napus (setting [3]), the inhibition at 1 µg/mL was 44.9% and the inhibition at 10 µg/mL amounted to 71.6%. In data set [1] (setting [2]), the inhibition at 1 µg/mL is 41.9% and the inhibition at 10 µg/mL was 62.3%. In data set [1] (setting [3]), the inhibition at 1 µg/mL is -23.6% and the inhibition at 10 µg/mL is 28.3%.
For the molecule `Cc1ccc2nc(COc3ccccc3)oc(=O)c2c1` [3e, 6-Methyl-2-(phenoxymethyl)-4H-3,1-benzoxazin-4-one], the melting point fell in the range of 133.3 to 135.1 °C. Further, in the data set on rape Brassica napus (setting [2]), the inhibition at 1 µg/mL is 55.3% and the inhibition at 10 µg/mL is 92.3%. Moreover, in the data set on rape Brassica napus (setting [3]), the inhibition at 1 µg/mL stood at 11.6% and the inhibition at 10 µg/mL was 81.6%. In data set [1] (setting [2]), the inhibition at 1 µg/mL turned out to be 26.1% and the inhibition at 10 µg/mL was 71.4%. In addition, in data set [1] (setting [3]), the inhibition at 1 µg/mL is -17.2% and the inhibition at 10 µg/mL worked out at 31.1%.
As to `O=c1oc(COc2ccc(F)cc2)nc2ccc(Cl)cc12` [3t, 6-Chloro-2-((4-fluorophenoxy)methyl)-4H-3,1-benzoxazin-4-one], the melting point lay in the range of 159.8 to 161.7 °C. For the same molecule, in the data set with rape Brassica napus (setting [2]), the inhibition at 1 µg/mL was 85.5% and the inhibition at 10 µg/mL amounted to 99.3%. In the data set on rape Brassica napus (setting [3]), the inhibition at 1 µg/mL was found to be 60% and the inhibition at 10 µg/mL came to 91.7%. Besides, in data set [1] (setting [2]), the inhibition at 1 µg/mL came to 66.3% and the inhibition at 10 µg/mL was found to be 93.2%. For the same molecule, in data set [1] (setting [3]), the inhibition at 1 µg/mL worked out at 36.4% and the inhibition at 10 µg/mL stood at 49.1%.

The values above are taken from article PMC6268642, “Facile Synthesis and Herbicidal Evaluation of 4H-3,1-Benzoxazin-4-ones and 3H-Quinazolin-4-ones with 2-Phenoxymethyl Substituents” (Molecules, 2012).
